ChEMBL document CHEMBL2429808, “Synthesis, characterization, and cytotoxicity of N-2-hydroxyethyl-substituted azastigmastanes” (Med Chem Res, 2013)

How the values were obtained:
Assay type in all cases: functional, cell-based
HCT-116 = test: Cytotoxicity against human HCT116 cells after 96 hrs by MTT assay; conditions: for IC50: HCT-116, 96 h
HepG2 = test: Cytotoxicity against human HepG2 cells after 96 hrs by MTT assay; conditions: for IC50: HepG2, 96 h
MCF7 = test: Cytotoxicity against human MCF7 cells after 96 hrs by MTT assay; conditions: for IC50: MCF7, 96 h

CC[C@H](CC[C@@H](C)[C@H]1CC[C@H]2[C@@H]3CC(=O)N(CCO)[C@H]4CCCC[C@]4(C)[C@H]3CC[C@]12C)C(C)C
Activity (HCT-116): Dose-dependent effect | IC50 (HCT-116): 3.96 µM | Activity (HepG2): Dose-dependent effect | IC50 (HepG2): 4.68 µM | Activity (MCF7): Dose-dependent effect | IC50 (MCF7): 2.98 µM

CC[C@H](CC[C@@H](C)[C@H]1CC[C@H]2[C@@H]3CC(=O)[C@H]4C[C@@H](OC(C)=O)CC[C@]4(C)[C@H]3CC[C@]12C)C(C)C
IC50 (HCT-116): 5.02 µM | IC50 (HepG2): 4.87 µM | IC50 (MCF7): 3.54 µM

CC[C@H](CC[C@@H](C)[C@H]1CC[C@H]2[C@@H]3CC(=O)N(CCO)[C@H]4C[C@@H](OC(C)=O)CC[C@]4(C)[C@H]3CC[C@]12C)C(C)C
Activity (HCT-116): Dose-dependent effect | IC50 (HCT-116): 4.24 µM | Activity (HepG2): Dose-dependent effect | IC50 (HepG2): 4.52 µM | Activity (MCF7): Dose-dependent effect | IC50 (MCF7): 3.02 µM

CC[C@H](CC[C@@H](C)[C@H]1CC[C@H]2[C@@H]3CC(=O)N(CCO)[C@H]4C[C@@H](Cl)CC[C@]4(C)[C@H]3CC[C@]12C)C(C)C
Activity (HCT-116): Dose-dependent effect | IC50 (HCT-116): 2.72 µM | Activity (HepG2): Dose-dependent effect | IC50 (HepG2): 3.02 µM | Activity (MCF7): Dose-dependent effect | IC50 (MCF7): 2.55 µM

CC[C@H](CC[C@@H](C)[C@H]1CC[C@H]2[C@@H]3CC(=O)[C@H]4C[C@@H](Cl)CC[C@]4(C)[C@H]3CC[C@]12C)C(C)C
IC50 (HCT-116): 3.15 µM | IC50 (HepG2): 3.56 µM | IC50 (MCF7): 3.01 µM

COc1cccc2c1C(=O)c1c(O)c3c(c(O)c1C2=O)C[C@@](O)(C(=O)CO)C[C@@H]3O[C@H]1C[C@H](N)[C@H](O)[C@H](C)O1 [DOXORUBICIN]
IC50 (HCT-116): 2.56 µM | IC50 (HepG2): 2.68 µM | IC50 (MCF7): 2.44 µM

CC[C@H](CC[C@@H](C)[C@H]1CC[C@H]2[C@@H]3CC(=O)[C@H]4CCCC[C@]4(C)[C@H]3CC[C@]12C)C(C)C
IC50 (HCT-116): 4.51 µM | IC50 (HepG2): 5.22 µM | IC50 (MCF7): 3.34 µM
